Laboratory results as given in patent US20190030018A1 (Celgene Corporation, priority 2017, published 2019).

Assays:
BON cells = assay: Signaling and proliferation of BON cells, CellTiter-Glo assay (2D and 3D plates); type: cell-based; settings: BON1, single agent
[1] = test system: IL3 independent JAK2 V617F BaF3 cells; assay: Combination studies with JAK2 inhibitors in engineered BaF3 cells, CellTitre-Glo after 3 days; type: cell-based; settings: compared to the IL3 dependent lines
Procedure: Everolimus was included as a control. The cell viability was then measured by CellTitre-Glo® after 3 days.

BMMCs from MDS patients = assay: Ex vivo liquid culture of BMMCs from MDS patients, Compound 1 with everolimus (viable cell count); type: cell-based, human
Procedure: Cultures were maintained for 1 week and cell numbers were measured by viable cell count on days 1, 3 and 7 of culture.

[2] = test system: caspase-3 activation and GSPT1 degradation in BMMCs from a MDS patient; assay: Apoptosis and GSPT1 degradation by flow cytometry 24 hours after exposure; type: cell-based, human; settings: 24 hours exposure
[3] = test system: human QGP1 pancreatic somatostatinoma xenografts; settings: mouse, in vivo
Procedure: Treatment began on Day 1 in nine groups of mice (n=10) with established subcutaneous QGP1 tumors. […] Tumors were measured using calipers twice each week to the end of the study on Day 52. Three tumors at or near the group median tumor volume 2000 mm^3 endpoint were sampled from each group.
Treatment efficacy was based on tumor growth inhibition (TGI), defined as the difference between the final (Day 52) median tumor volumes (MTVs) of treated and control mice. The results were analyzed utilizing the Mann-Whitney U-test, and were deemed statistically significant at P≤0.05. Drug tolerability was assessed by body weight measurements and by frequent observation of treated animals.

**Q.** For `O=C1CCC(N2Cc3cc(CNC(=O)C(F)(F)c4ccc(Cl)cc4)ccc3C2=O)C(=O)N1` (centres unmarked) [Compound 1, 2-(4-chlorophenyl)-N-((2-(2,6-dioxopiperidin-3-yl)-1-oxoisoindolin-5-yl)methyl)-2,2-difluoroacetamide], which “standalone activity on proliferation” value (BON cells) is on record?
**A.** no standalone activity

**Q.** And the single agent sensitivity [1]?
**A.** more sensitive

**Q.** What about the “effect of single agent” value (BMMCs from MDS patients; 37 nM) of the same molecule?
**A.** No effect

**Q.** And the “reduction of cell numbers” value (BMMCs from MDS patients; 37 nM, after 3 days of culture)?
**A.** ~70%

**Q.** What about the cell number decrease (BMMCs from MDS patients; higher concentrations) of the same molecule?
**A.** up to 95%

**Q.** What about the “Caspase 3 activation” value [2] of the same molecule?
**A.** activated

**Q.** What about the GSPT1 degradation [2] of the same molecule?
**A.** degraded

**Q.** And the weight loss [3]?
**A.** 1.6-6.8%
